Common to all, as to format: physicochemical
Data set [1] is described as follows: pKa via photometric titration (Roche internal data). The settings on record: measured via photometric titration; basic model compounds.
Data set [2] in a line: Drug solubility in water (aqueous solubility). The note with it: thermodynamic from solid.
Data set [3] in a line: Equilibrium solubility in EPO-solutions, 96-well SORESOS assay. The note with it: for Adjusted SE in EPO 0.1% / Adjusted SE in EPO 0.5% / Adjusted SE in EPO 1.0% / Adjusted SE in EPO 2.0% / Adjusted SE in EPO 3.0% / Adjusted SE in EPO 4.0% / Adjusted SE in EPO 5.0%: vs adjusted solubility in water at pH 6.0; for Non-adjusted SE in EPO 0.1% (in brackets) / Non-adjusted SE in EPO 0.5% (in brackets) / Non-adjusted SE in EPO 1.0% (in brackets) / Non-adjusted SE in EPO 2.0% (in brackets) / Non-adjusted SE in EPO 3.0% (in brackets) / Non-adjusted SE in EPO 4.0% (in brackets) / Non-adjusted SE in EPO 5.0% (in brackets): vs measured solubility in water; for course of solubility with polymer concentration: EPO 0.1-5%. As to the method: Polymer solutions were prepared by dissolving EPO (0.1%, 0.5%, 1%, 2%, 3%, 4%, 5% (w/w)) in deionized water and adjusting all solutions to pH 6.0 by hydrochloric acid and sodium hydroxide at 25° C. Solutions were checked carefully for absence of particles.
(§1) Solubility of compounds in EPO-solutions was determined by using a 96-well assay that was introduced to measure equilibrium solubility in parallel to a solid state analysis of the residual solid (SORESOS)^21 as described before.^22 In brief, APIs were dispensed using the powder-picking-method^23 in a 96-well flat bottom plate (Corning Inc., Durham, USA). Mixtures were agitated by head-over-head rotation for 48 h at room temperature after addition of stir bars and polymer solutions (150 μl). After mixing, the suspensions were carefully transferred into 96-well filter plates and the liquid and solid phase were separated by centrifugation. […] An isocratic flow (composition of the mobile phase is listed in Table 2) was applied for 0.3 min at a flow rate of 0.75 mL/min. […] Solid state analysis of residual solid was performed by X-ray powder diffraction (XRPD) using a STOE Stadi P Combi diffractometer with a primary Ge-monochromator (Cu Kα radiation), imaging plate position sensitive detector (IP-PSD), and a 96-well sample stage as described before.^21 The IP-PSD allowed simultaneous recording of the diffraction pattern on both sides of the primary beam which were summed up by the software STOE WinXPOW to reduce effects related to poor crystal orientation statistics. Samples were analyzed directly in the 96-well filter plate with an exposure time of 5 min per well.
as §1, with “After addition of stir bars and polymer solutions (150 μl), mixtures” for “Mixtures”, “temperature.” for “temperature after addition of stir bars and polymer solutions (150 μl).”, “7)” for “2)”

Data set [4] can be described thus: pH of drug suspensions in water and in EPO-solutions. The settings on record: EPO 0.5%, 2%, and 5%; solutions started at pH 6.0. As to the method:
All excipient solutions were adjusted to pH 6.0 before incubation and following equilibration, the residual solid was analyzed by means of XRPD. […] This extrapolation method was based on the Henderson-Hasselbalch equation and it is generally reliable when the experimental solubility value is within one pH unit difference.^25

Setting [5] is: 24 h incubation, pH not adjusted, read-out: Solubility in water (standard deviation, n = 3).
[6] abbreviates: extrapolated to pH 6.0 by Henderson-Hasselbalch equation, read-out: Adjusted solubility at pH 6.0.

Results on eight compounds are retold here after patent publication US11491109B2, “Pharmaceutical compositions for basic or neutral, low molecular weight compounds” (Hoffmann-La Roche Inc., priority 2017, dated 2022).

Broadly, the pKa is the negative logarithm of the acid dissociation constant. The solubility is the dissolved amount per volume that the medium holds.

Converted amounts (≈) assume the structure as drawn. “And” between values parts separate entries of the source, which are not always exact repeats. Equal values may be shown once. Read-outs that look alike come from different tables or passages of the source.

Take `C(=C\c1ccccc1)/CN1CCN(C(c2ccccc2)c2ccccc2)CC1` [CNZ, Cinnarizine]: the pKa in data set [1] was 7.8. For the same compound, the solubility at 24 h in data set [2] (setting [5]) was found to be 1 µg/mL (≈ 2.71 µM). The solubility at 24 h in data set [2] (setting [6]) is 1 µg/mL (≈ 2.71 µM). Besides, in data set [3], the “Adjusted SE in EPO 0.1%” value is 2.7 (2.7), the “Non-adjusted SE in EPO 0.1% (in brackets)” value is on record as 2.7 (2.7), the “Adjusted SE in EPO 0.5%” value is 10.3 (10.3) and the “Non-adjusted SE in EPO 0.5% (in brackets)” value is on record as 10.3 (10.3). Moreover, in data set [3], the “Adjusted SE in EPO 1.0%” value is reported as 15.3 (15.3), the “Non-adjusted SE in EPO 1.0% (in brackets)” value is on record as 15.3 (15.3), the “Adjusted SE in EPO 2.0%” value was 29.3 (29.3) and the “Non-adjusted SE in EPO 2.0% (in brackets)” value is on record as 29.3 (29.3). In addition, in data set [3], the “Adjusted SE in EPO 3.0%” value was 37.3 (37.3), the “Non-adjusted SE in EPO 3.0% (in brackets)” value was 37.3 (37.3), the “Adjusted SE in EPO 4.0%” value is given as 39.0 (39.0) and the “Non-adjusted SE in EPO 4.0% (in brackets)” value is recorded as 39.0 (39.0). In addition, in data set [3], the “Adjusted SE in EPO 5.0%” value was 37.0 (37.0) and the “Non-adjusted SE in EPO 5.0% (in brackets)” value was 37.0 (37.0).

As to `COc1ccccc1OCCNCC(O)COc1cccc2[nH]c3ccccc3c12` (stereo not drawn) [CVD, carvedilol], the pKa in data set [1] is 8.1. In addition, in data set [2] (setting [6]), the solubility at 24 h was 71 µg/mL (≈ 175 µM). The “EPO concentration at which solubility reached a plateau” value in data set [3] (48 h, room temperature) is given as 2 % EPO (w/w). Also, in data set [3], the “Adjusted SE in EPO 0.1%” value was found to be 1.7, the “Non-adjusted SE in EPO 0.1% (in brackets)” value is 24.3, the “Adjusted SE in EPO 0.5%” value was determined as 6.7 and the “Non-adjusted SE in EPO 0.5% (in brackets)” value is recorded as 94.9. In data set [3], the “Adjusted SE in EPO 1.0%” value amounted to 6.9, the “Adjusted SE in EPO 2.0%” value amounted to 10.7, the “Non-adjusted SE in EPO 2.0% (in brackets)” value was 152.3 and the “Adjusted SE in EPO 3.0%” value is on record as 11.1. For the same compound, in data set [3], the “Non-adjusted SE in EPO 3.0% (in brackets)” value was found to be 157.4, the “Adjusted SE in EPO 4.0%” value was found to be 10.6, the “Non-adjusted SE in EPO 4.0% (in brackets)” value stood at 150.9 and the “Adjusted SE in EPO 5.0%” value is 11.7. Further, the “Non-adjusted SE in EPO 5.0% (in brackets)” value in data set [3] came out at 165.9.

The compound `CCOC(=O)C1=C(C)NC(C)=C(C(=O)OC)C1c1cccc(Cl)c1Cl` (stereo not drawn) [FLP, felodipine] gave a solubility in data set [2] (neutral model compounds, n = 3) of 0.4 µg/mL (≈ 1.04 µM). In addition, in data set [3] (48 h, room temperature), the “course of solubility with polymer concentration” value (“course of solubility” below) is reported as “increase of solubility with polymer concentration up to 5% EPO”.

For `COC1=CC(=O)C[C@@H](C)[C@]12Oc1c(Cl)c(OC)cc(OC)c1C2=O` [GFN, griseofulvin], in data set [3] (48 h, room temperature), the “EPO concentration of maximum solubility” value is on record as 2 % EPO (w/w); the “course of solubility” value is “solubility decreased again and finally reached a kind of plateau”.

As for `OC(c1cc(C(F)(F)F)nc2c(C(F)(F)F)cccc12)C1CCCCN1` (stereo not drawn) [MFQ, mefloquine], in data set [4], the “pH after 48 h in EPO” value was 6.3 and 6.4. In data set [1], this compound gave a pKa of 9.2. Moreover, the solubility at 24 h in data set [2] (setting [5]) stood at 63 µg/mL (≈ 167 µM). The solubility at 24 h in data set [2] (setting [6]) was 2450 µg/mL (≈ 6470 µM). Moreover, in data set [3], the “Adjusted SE in EPO 0.1%” value was 0.2, the “Non-adjusted SE in EPO 0.1% (in brackets)” value came out at 7.2, the “Adjusted SE in EPO 0.5%” value stood at 1.0 and the “Non-adjusted SE in EPO 0.5% (in brackets)” value is 37.3. In addition, in data set [3], the “Adjusted SE in EPO 1.0%” value is on record as 1.5, the “Non-adjusted SE in EPO 1.0% (in brackets)” value worked out at 58.3, the “Adjusted SE in EPO 2.0%” value is reported as 2.4 and the “Adjusted SE in EPO 3.0%” value worked out at 3.6. Besides, in data set [3], the “Non-adjusted SE in EPO 3.0% (in brackets)” value was determined as 141.5, the “Adjusted SE in EPO 4.0%” value was found to be 4.4, the “Non-adjusted SE in EPO 4.0% (in brackets)” value is on record as 172.5 and the “Adjusted SE in EPO 5.0%” value stood at 4.8. Also, in data set [3], the “Non-adjusted SE in EPO 5.0% (in brackets)” value stood at 186.2. Besides, the “course of solubility” value in data set [3] (48 h, room temperature) is reported as “increase of solubility with polymer concentration up to 5% EPO”. This compound also registered a solubility at 48 h in data set [3] (aqueous EPO polymer solution, pH 6, aqueous with cosolvent or surfactant or cyclodextrin, thermodynamic from solid, EPO 5%, 48 h, room temperature) of 12000 µg/mL (≈ 31700 µM).

Compound `O=c1[nH]c2ccccc2n1C1CCN(CCCC(c2ccc(F)cc2)c2ccc(F)cc2)CC1` [PMZ, Pimozide] gave a pKa in data set [1] of 8.6. The solubility at 24 h in data set [2] (setting [5]) came to 2 µg/mL (≈ 4.33 µM). The solubility at 24 h in data set [2] (setting [6]) is 13 µg/mL (≈ 28.2 µM). Also, in data set [3], the “Adjusted SE in EPO 0.1%” value is reported as 2.0, the “Non-adjusted SE in EPO 0.1% (in brackets)” value is given as 12.8, the “Adjusted SE in EPO 0.5%” value is reported as 5.4 and the “Non-adjusted SE in EPO 0.5% (in brackets)” value is recorded as 35.3. Besides, in data set [3], the “Adjusted SE in EPO 1.0%” value worked out at 5.0, the “Non-adjusted SE in EPO 1.0% (in brackets)” value was 32.3, the “Adjusted SE in EPO 2.0%” value is reported as 6.9 and the “Non-adjusted SE in EPO 2.0% (in brackets)” value was 45.0. In data set [3], the “Adjusted SE in EPO 3.0%” value is listed as 8.5, the “Non-adjusted SE in EPO 3.0% (in brackets)” value was 55.2, the “Adjusted SE in EPO 4.0%” value is 9.3 and the “Non-adjusted SE in EPO 4.0% (in brackets)” value was 60.2. In addition, in data set [3], the “Adjusted SE in EPO 5.0%” value was 9.8 and the “Non-adjusted SE in EPO 5.0% (in brackets)” value worked out at 63.8. Besides, the “course of solubility” value in data set [3] (48 h, room temperature) is listed as “increase of solubility with polymer concentration up to 5% EPO”.

`CC(C)(C)c1ccc(C(O)CCCN2CCC(C(O)(c3ccccc3)c3ccccc3)CC2)cc1` (stereo not drawn) [TFD, terfenadine]: the pKa in data set [1] came out at 9.1. Besides, the solubility at 24 h in data set [2] (setting [5]) was determined as 2 µg/mL (≈ 4.24 µM). Further, in data set [2] (setting [6]), the solubility at 24 h was 13 µg/mL (≈ 27.6 µM). Further, the “EPO concentration at which solubility reached a plateau” value in data set [3] (48 h, room temperature) is recorded as 2 % EPO (w/w). In data set [3], the “Adjusted SE in EPO 0.1%” value is 2.5, the “Non-adjusted SE in EPO 0.1% (in brackets)” value turned out to be 16.0, the “Adjusted SE in EPO 0.5%” value was determined as 6.6 and the “Non-adjusted SE in EPO 0.5% (in brackets)” value is reported as 43.2. Further, in data set [3], the “Adjusted SE in EPO 1.0%” value is given as 8.3, the “Non-adjusted SE in EPO 1.0% (in brackets)” value is 54.0, the “Adjusted SE in EPO 2.0%” value is on record as 11.7 and the “Non-adjusted SE in EPO 2.0% (in brackets)” value stood at 76.2. Besides, in data set [3], the “Adjusted SE in EPO 3.0%” value was 15.3, the “Non-adjusted SE in EPO 3.0% (in brackets)” value is on record as 99.3, the “Adjusted SE in EPO 4.0%” value is 14.6 and the “Non-adjusted SE in EPO 4.0% (in brackets)” value was determined as 94.8. Moreover, in data set [3], the “Adjusted SE in EPO 5.0%” value is recorded as 14.0 and the “Non-adjusted SE in EPO 5.0% (in brackets)” value is 91.2.

In the case of `CC/C(=C(\c1ccccc1)c1ccc(OCCN(C)C)cc1)c1ccccc1` [TMX, tamoxifen], the pKa in data set [1] is 9.7.
